This is an account of results in patent US20040176361A1, “Fused heterocyclic compound and medicinal use thereof” (priority 2001, published 2004).

In one series the target is Recombinant human PARP (Homo sapiens, UniProt P09874). The experiment in a line: PARP enzyme activity inhibitory action. The note with it: PARP inhibitory activity IC50 (nM), 3H-NAD, activated DNA, 25° C. 15 min; average of 3 measurements.

Where a name gives a salt, the structure may show the parent alone.

Sequence of Recombinant human PARP (P09874 whole entry): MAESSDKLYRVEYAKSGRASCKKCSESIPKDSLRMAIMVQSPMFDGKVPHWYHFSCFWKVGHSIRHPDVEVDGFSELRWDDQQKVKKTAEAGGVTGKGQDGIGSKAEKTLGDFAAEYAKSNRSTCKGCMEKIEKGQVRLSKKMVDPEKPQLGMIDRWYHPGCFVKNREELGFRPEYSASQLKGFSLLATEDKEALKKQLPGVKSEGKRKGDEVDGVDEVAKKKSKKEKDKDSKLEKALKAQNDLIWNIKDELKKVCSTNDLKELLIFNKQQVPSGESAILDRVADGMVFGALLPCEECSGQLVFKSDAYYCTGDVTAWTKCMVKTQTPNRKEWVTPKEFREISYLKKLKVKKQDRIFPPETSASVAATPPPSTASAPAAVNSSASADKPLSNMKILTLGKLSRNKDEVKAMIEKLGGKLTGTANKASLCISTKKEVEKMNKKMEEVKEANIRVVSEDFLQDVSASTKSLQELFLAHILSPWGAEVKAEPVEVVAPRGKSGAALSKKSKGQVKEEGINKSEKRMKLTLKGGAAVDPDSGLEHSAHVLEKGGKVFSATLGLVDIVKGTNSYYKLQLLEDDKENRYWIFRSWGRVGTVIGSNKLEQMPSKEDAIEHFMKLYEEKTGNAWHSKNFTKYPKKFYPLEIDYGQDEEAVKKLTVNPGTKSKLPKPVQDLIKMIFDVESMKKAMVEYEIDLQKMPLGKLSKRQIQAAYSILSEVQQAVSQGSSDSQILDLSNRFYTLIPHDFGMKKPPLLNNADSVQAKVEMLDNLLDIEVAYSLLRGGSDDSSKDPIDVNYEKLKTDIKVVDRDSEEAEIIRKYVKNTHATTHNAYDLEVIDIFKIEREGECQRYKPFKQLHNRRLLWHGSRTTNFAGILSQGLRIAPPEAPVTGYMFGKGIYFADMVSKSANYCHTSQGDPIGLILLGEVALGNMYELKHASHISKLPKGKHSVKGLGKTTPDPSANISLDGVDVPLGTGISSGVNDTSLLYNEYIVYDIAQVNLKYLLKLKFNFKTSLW
Procedure for Recombinant human PARP: After incubation at 25° C. for 15 min., the reaction was quenched with 20% trichloroacetic acid, and the resulting acid insoluble fraction was adsorbed on a GF/B filter. The filter was washed several times with 5% trichloroacetic acid, and the radiation dose on the filter was measured by liquid scintillation counter.

As for `Cc1cccc2c(=O)[nH]c([C@@H]3CCN4CCCC4C3)cc12` (single isomer, unassigned) [Example 225, 5-methyl-3-(octahydroindolizin-7-yl)-2H-isoquinolin-1-one ¾ water adduct], on Recombinant human PARP, the IC50 is 26 nM.

For the compound `Cc1cccc2c(=O)[nH]c([C@@H]3CCN4CCCC4C3)cc12` (single isomer, unassigned) [Example 226, 5-methyl-3-(octahydroindolizin-7-yl)-2H-isoquinolin-1-one ½ water adduct], on Recombinant human PARP, the IC50 worked out at 31 nM. For `CN(C)C1CCN(c2cc3ccccc3c(=O)[nH]2)CC1` [Example 3, 3-(4-dimethylaminopiperidine-1-yl)-2H-isoquinolin-1-one], the melting point was 204 to 205 °C (dec.). Further, the IC50 on Recombinant human PARP was 70 nM. Turning to `CN1CCN(c2cc3ccccc3c(=O)[nH]2)CC1CO` (centres unmarked) [Example 4, 3-(3-hydroxymethyl-4-methylpiperazin-1-yl)-2H-isoquinolin-1-one], at Recombinant human PARP, the IC50 was 42 nM.

With `COc1cccc2c(=O)[nH]c(N3CCN(C)CC3)cc12` [Example 18, 5-methoxy-3-(4-methylpiperazin-1-yl)-2H-isoquinolin-1-one], the IC50 on Recombinant human PARP is 56 nM. On the same count and under the same terms, the same measure for `CN1CCN(c2cc3c(O)cccc3c(=O)[nH]2)CC1` [Example 19, 5-hydroxy-3-(4-methylpiperazin-1-yl)-2H-isoquinolin-1-one]: 25 nM. Consider `CN1CCN(c2cc3c(F)cccc3c(=O)[nH]2)CC1` [Example 20, 5-fluoro-3-(4-methylpiperazin-1-yl)-2H-isoquinolin-1-one], for which the melting point is 238 to 239 °C (dec.). At Recombinant human PARP, the half-inhibitory concentration (IC50) is 75 nM. On the same counts, the results for `CN1CCN(c2cc3c(Cl)cccc3c(=O)[nH]2)CC1` [Example 21, 5-chloro-3-(4-methylpiperazin-1-yl)-2H-isoquinolin-1-one] are 230 to 231 °C (dec.) and 82 nM. As to `CN1CCN(c2cc3c(Br)cccc3c(=O)[nH]2)CC1` [Example 22, 5-bromo-3-(4-methylpiperazin-1-yl)-2H-isoquinolin-1-one], the melting point is 240 to 241 °C (dec.). Moreover, at Recombinant human PARP, the IC50 came to 96 nM.

As to `CN(C)C1CCN(c2cc3c(F)cccc3c(=O)[nH]2)CC1` [Example 28, 5-fluoro-3-(4-dimethylaminopiperidin-1-yl)-2H-isoquinolin-1-one], the IC50 at Recombinant human PARP turned out to be 63 nM. As to `CN(C)C1CCN(c2cc3c(Cl)cccc3c(=O)[nH]2)CC1` [Example 29, 5-chloro-3-(4-dimethylaminopiperidin-1-yl)-2H-isoquinolin-1-one], the melting point was 210 to 211 °C (dec.). Moreover, the 50% inhibitory concentration (IC50) on Recombinant human PARP is 65 nM.

`CN(C)CCCc1cc2ccccc2c(=O)[nH]1` [Example 85, 3-(3-(dimethylamino)propyl)-2H-isoquinolin-1-one]: the IC50 on Recombinant human PARP came to 47 nM.

In the case of `O=c1[nH]c(C2CN3CCC2CC3)cc2ccccc12` (centres unmarked) [Example 86, 3-(1-azabicyclo[2.2.2]octan-3-yl)-2H-isoquinolin-1-one], at Recombinant human PARP, the 50% inhibitory concentration (IC50) worked out at 61 nM.

As for `Cc1cccc2c(=O)[nH]c(C3CCNCC3)cc12` [Example 93, 3-(piperidin-4-yl)-5-methyl-2H-isoquinolin-1-one hydrochloride], the IC50 at Recombinant human PARP worked out at 44 nM.

As for `CN1CCC(c2[nH]c(=O)c3ccccc3c2-c2ccccc2)CC1` [Example 98, 3-(1-methylpiperidin-4-yl)-4-phenyl-2H-isoquinolin-1-one ⅕ water adduct], the melting point was 258 to 260 °C (dec.). Moreover, the IC50 at Recombinant human PARP was 87 nM. Compound `CN1CCC(c2cc3c(F)cccc3c(=O)[nH]2)CC1` [Example 106, 5-fluoro-3-(1-methylpiperidin-4-yl)-2H-isoquinolin-1-one] returned a melting point of 220 to 222 °C. Moreover, the IC50 on Recombinant human PARP was 40 nM. Consider `COc1cccc2c(=O)[nH]c(C3CCN(C)CC3)cc12` [Example 107, 5-methoxy-3-(1-methylpiperidin-4-yl)-2H-isoquinolin-1-one], for which the melting point fell in the range of 239 to 242 °C. In addition, the IC50 on Recombinant human PARP was found to be 45 nM. On the same counts, the results for `Cc1cccc2c(=O)[nH]c(C3CN4CCC3CC4)nc12` (centres unmarked) [Example 138, 2-(1-azabicyclo[2.2.2]octan-3-yl)-8-methyl-3H-quinazolin-4-one] are 230 to 231 °C (dec.) and 58 nM. As for `Cc1cccc2c(=O)[nH]c(CCCN(C)C)nc12` [Example 145, 8-methyl-2-[3-(dimethylamino)propyl]-3H-quinazolin-4-one], on Recombinant human PARP, the IC50 was determined as 39 nM. As for `Cc1cccc2c(=O)[nH]c(N3CCN(C)C(CO)C3)cc12` (centres unmarked) [Example 153, 3-(3-hydroxymethyl-4-methylpiperazin-1-yl)-5-methyl-2H-isoquinolin-1-one], at Recombinant human PARP, the IC50 stood at 36 nM. The same measure, in the same setting: with `Cc1cccc2c(=O)[nH]c(CCN3CCCCC3)nc12` [Example 165, 8-methyl-2-(2-piperidinoethyl)-3H-quinazolin-4-one] the figure was 52 nM.

As to `Cc1cccc2c(=O)[nH]c(CCCN3CCCC3)nc12` [Example 176, 8-methyl-2-[3-(pyrrolidin-1-yl)propyl]-3H-quinazolin-4-one], the IC50 at Recombinant human PARP is 44 nM. Consider `CN1CCC(c2cc3ccc(Cl)cc3c(=O)[nH]2)CC1` [Example 183, 7-chloro-3-(1-methylpiperidin-4-yl)-2H-isoquinolin-1-one], for which the melting point was 253 to 255 °C. At Recombinant human PARP, the IC50 amounted to 44 nM. Regarding `O=c1[nH]c(C2CCCN(Cc3ccccc3)C2)cc2ccccc12` (centres unmarked) [Example 191, 3-(1-benzylpiperidin-3-yl)-2H-isoquinolin-1-one], the melting point was in the range of 176 to 178 °C.

Consider `CN1CCC=C(c2cc3ccccc3c(=O)[nH]2)C1` [Example 193, 3-(1-methyl-1,2,3,6-tetrahydropyridin-5-yl)-2H-isoquinolin-1-one], for which the melting point was in the range of 214 to 216 °C. The same measure, in the same setting: the same measure for `O=c1[nH]c(N2CCNC(CO)C2)cc2ccccc12` (centres unmarked) [Example 194, 3-(3-hydroxymethylpiperazin-1-yl)-2H-isoquinolin-1-one]: > 120 °C (dec.). With `CCCN1CCN(c2cc3ccccc3c(=O)[nH]2)CC1CO` (centres unmarked) [Example 196, 3-(3-hydroxymethyl-4-propylpiperazin-1-yl)-2H-isoquinolin-1-one], the melting point was in the range of 152 to 154 °C. The same measure, in the same setting: with `O=c1[nH]c(N2CCN(Cc3ccccc3)C(CO)C2)cc2ccccc12` (centres unmarked) [Example 197, 3-(4-benzyl-3-hydroxymethylpiperazin-1-yl)-2H-isoquinolin-1-one] the figure was 176 to 177 °C; with `O=c1[nH]c(N2CCNC(CO)C2)cc2c(Br)cccc12` (centres unmarked) [Example 198, 5-bromo-3-(3-hydroxymethylpiperazin-1-yl)-2H-isoquinolin-1-one], > 230 °C (dec.). Turning to `CN1CCN(c2cc3c(Br)cccc3c(=O)[nH]2)CC1CO` (centres unmarked) [Example 199, 5-bromo-3-(3-hydroxymethyl-4-methylpiperazin-1-yl)-2H-isoquinolin-1-one], the melting point was 200 to 202 °C. As to `O=c1[nH]c(N2CCC(N3CCCCC3)CC2)cc2ccccc12` [Example 200, 3-(4-piperidinopiperidin-1-yl)-2H-isoquinolin-1-one], the melting point is > 200 °C (dec.). Compound `O=c1[nH]c(N2CCCC(CO)C2)cc2ccccc12` (centres unmarked) [Example 201, 3-(3-hydroxymethylpiperidin-1-yl)-2H-isoquinolin-1-one] gave a melting point of 143 to 144 °C. On the same count and under the same terms, with `CN(C)C(=O)C1CCCN(c2cc3ccccc3c(=O)[nH]2)C1` (centres unmarked) [Example 202, 3-(3-(dimethylcarbamoyl)piperidin-1-yl)-2H-isoquinolin-1-one] the figure was 187 to 188 °C; with `CC(C)CN1CCN(c2cc3ccccc3c(=O)[nH]2)CC1CO` (centres unmarked) [Example 203, 3-(3-hydroxymethyl-4-isobutylpiperazin-1-yl)-2H-isoquinolin-1-one], 130 to 132 °C; with `CN(C)CC1CCCN(c2cc3ccccc3c(=O)[nH]2)C1` (centres unmarked) [Example 206, 3-(3-(dimethylaminomethyl)piperidin-1-yl)-2H-isoquinolin-1-one], 141 to 143 °C. The same measure, in the same setting: the same measure for `COCOc1ccc2cc(C3CCN(C)CC3)[nH]c(=O)c2c1` [Example 210, 7-methoxymethyloxy-3-(1-methylpiperidin-4-yl)-2H-isoquinolin-1-one]: 200 to 202 °C.

Turning to `Cc1cccc2c(=O)[nH]c(CCN3CCCCC3)cc12` [Example 218, 5-methyl-3-[2-(piperidin-1-yl)ethyl]-2H-isoquinolin-1-one], on Recombinant human PARP, the IC50 amounted to 26 nM.

With `O=c1[nH]c(CCN2CCCCC2)cc2ccccc12` [Example 219, 3-[2-(piperidin-1-yl)ethyl]-2H-isoquinolin-1-one], on Recombinant human PARP, the IC50 was found to be 63 nM.

For `O=c1[nH]c(CCN2CCCC2)cc2ccccc12` [Example 220, 3-[2-(pyrrolidin-1-yl)ethyl]-2H-isoquinolin-1-one], the IC50 on Recombinant human PARP turned out to be 77 nM. As for `Cc1cccc2c(=O)[nH]c(CCN3CCCC3)cc12` [Example 221, 5-methyl-3-[2-(pyrrolidin-1-yl)ethyl]-2H-isoquinolin-1-one], on Recombinant human PARP, the IC50 worked out at 42 nM. On the same count and under the same terms, the same measure for `Cc1cccc2c(=O)[nH]c(CCCN3CCCC3)cc12` [Example 222, 5-methyl-3-[3-(pyrrolidin-1-yl)propyl-1-yl]-2H-isoquinolin-1-one]: 36 nM; for `Cc1cccc2c(=O)[nH]c(CCCN3CCCCC3)cc12` [Example 228, 5-methyl-3-[3-(piperidin-1-yl)propyl]-2H-isoquinolin-1-one]: 72 nM. Same read-out and setting: the same measure for `Cc1cccc2c(=O)[nH]c(C3CCN(C)C3)cc12` (centres unmarked) [Example 248, 5-methyl-3-(1-methylpyrrolidin-3-yl)-2H-isoquinolin-1-one]: 68 nM. With `O=c1[nH]c(N2CCCCC2)cc2ccccc12` [Example Y-3010, reference compound], at Recombinant human PARP, the 50% inhibitory concentration (IC50) is 5100 nM. Turning to `O=c1[nH]c(N2CCN(CCO)CC2)cc2ccccc12` [Example Y-3079, reference compound], the IC50 on Recombinant human PARP amounted to 79 nM.

For the compound `Cc1cccc2c(=O)[nH]c(N3CCN(C)CC3)nc12` [Pfizer, reference compound], the IC50 at Recombinant human PARP came out at 240 nM.

A word on the IC50: it is the concentration at which inhibition is half-maximal. For orientation: melting point means the temperature, or range, at which the solid turns liquid.
